{"source": "paper PMC3884022", "about": "(Journal of Hematology & Oncology, 2014)", "key": {"[1]": {"test_system": "AKT1", "parameters": "method as in earlier work", "conditions": "cited from earlier work"}, "[2]": {"biological_target": "2C9 (Homo sapiens, UniProt P11712)", "sequence (P11712 whole entry)": "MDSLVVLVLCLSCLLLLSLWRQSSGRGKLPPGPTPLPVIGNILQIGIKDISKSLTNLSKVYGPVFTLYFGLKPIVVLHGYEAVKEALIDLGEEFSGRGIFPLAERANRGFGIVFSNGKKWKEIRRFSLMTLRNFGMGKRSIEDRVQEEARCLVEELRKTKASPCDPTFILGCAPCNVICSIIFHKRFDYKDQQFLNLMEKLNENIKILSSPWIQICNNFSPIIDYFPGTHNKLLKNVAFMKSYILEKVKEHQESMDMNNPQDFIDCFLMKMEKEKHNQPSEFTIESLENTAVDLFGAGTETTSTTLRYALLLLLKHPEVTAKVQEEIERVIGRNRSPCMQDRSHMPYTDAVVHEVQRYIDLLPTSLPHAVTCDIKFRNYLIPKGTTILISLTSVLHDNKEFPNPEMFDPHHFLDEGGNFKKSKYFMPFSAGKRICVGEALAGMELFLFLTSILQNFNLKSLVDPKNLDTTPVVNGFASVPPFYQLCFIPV", "experiment": "CYP2C9 inhibition", "type": "in vitro ADME"}, "[3]": {"biological_target": "2D6 (Homo sapiens, UniProt P10635)", "sequence (P10635 whole entry)": "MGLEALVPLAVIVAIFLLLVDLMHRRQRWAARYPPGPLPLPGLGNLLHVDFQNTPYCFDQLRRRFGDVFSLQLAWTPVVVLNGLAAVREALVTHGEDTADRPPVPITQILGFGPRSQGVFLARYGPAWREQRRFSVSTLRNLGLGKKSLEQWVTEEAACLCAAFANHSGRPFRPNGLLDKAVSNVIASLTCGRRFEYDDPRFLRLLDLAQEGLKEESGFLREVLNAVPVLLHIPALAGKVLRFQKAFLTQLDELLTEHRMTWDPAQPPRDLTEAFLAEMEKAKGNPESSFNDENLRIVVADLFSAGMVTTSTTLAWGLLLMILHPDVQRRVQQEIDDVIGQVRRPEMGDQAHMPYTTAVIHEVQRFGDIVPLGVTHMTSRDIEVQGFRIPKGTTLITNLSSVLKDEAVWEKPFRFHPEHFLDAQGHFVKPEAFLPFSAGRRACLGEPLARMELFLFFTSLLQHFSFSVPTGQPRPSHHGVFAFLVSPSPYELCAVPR", "experiment": "CYP2D6 inhibition", "type": "in vitro ADME"}, "[4]": {"test_system": "AKT2", "parameters": "method as in earlier work", "conditions": "cited from earlier work"}, "[5]": {"test_system": "mouse NCI-H292 tumor xenografts", "conditions": "3 times per week and QW schedule of MK-2206; cited from earlier work"}, "[6]": {"test_system": "CYP3A", "experiment": "Metabolism in human microsomes", "type": "in vitro ADME"}, "[7]": {"experiment": "Phase 1 combination study: MK-2206 pharmacokinetics", "type": "in vivo, human", "conditions": "for Tmax / half-life: first dose; for Tmax: read-out: T max, median (range); for half-life: read-out: t 1/2, harmonic mean ± pseudo SD (converted)", "experimental": "For the Q3W schedule, samples were taken in cycle 1 on days 1 to 3 as per the QOD schedule, then on days 5, 7, 15, and in cycle 2 on day 1. Blood samples were collected predose and just before the end of the infusion for carboplatin, paclitaxel, and docetaxel for archival and possible PK analysis. Another sample was taken 30 minutes into the infusion of paclitaxel. These samples were archived for possible future analysis to investigate if any unexpected toxicities may have been as a result of a PK interaction. Docetaxel PK samples were analyzed in view of the DLT of febrile neutropenia observed in arm 2; however, PK parameters, such as half-life (t1/2) or systemic exposure of paclitaxel, docetaxel, carboplatin, and erlotinib, could not be evaluated due to the sparse blood sampling design used in this study.\nFor QW dosing, samples were taken in cycle 1 on day 1 (predose, 2, 4, 6, 10, and 24 hours postdose), day 3 (48 hours postdose), and day 5 (96 hours postdose), then on days 8 and 15 (predose). This sampling schedule was repeated in cycle 2, except for the day 15 predose sample, which was omitted. For the QOD schedule, PK sampling for erlotinib was performed in cycle 1 on day 1 (predose, 2 and 4 hours postdose) and day 21 (2 and 4 hours postdose); for the QW schedule, sampling was performed in cycle 1 on day 1 (predose, 2 and 4 hours postdose) and in cycle 2 on day 1 (2 and 4 hours postdose). […] Blood samples were not analyzed for erlotinib concentrations as the potential for a marked drug-drug interaction with erlotinib as a victim was considered to be low as erlotinib is metabolized by both CYP3A and CYP1A."}, "[8]": {"test_system": "non-small cell lung (NSCLC) cell lines and breast cancer cell lines", "conditions": "with erlotinib and lapatinib; including RAS mutant lines; cited from earlier work"}, "[9]": {"test_system": "advanced solid tumors", "experiment": "Phase 1 combination study: tumor response (RECIST)", "type": "in vivo, human", "experimental": "Circulating nucleic acids were analyzed for PIK3CA (exons 9 and 20), KRAS (exons 2 and 3), and BRAF (exons 11 and 15) mutations. DNA extracted from whole blood samples was subjected to real-time quantitative polymerase chain reaction and spectrophotometric analysis as part of the quality control process, as previously described. Mutation screening was performed using Surveyor Nuclease (Transgenomic, Inc., Nebraska, USA). Radiologic assessment (computed tomography [CT] and/or magnetic resonance imaging [MRI] scans) of disease status was performed at baseline and every 6 weeks according to Response Evaluation Criteria in Solid Tumors (v1.0)."}, "[10]": {"test_system": "PC-3 prostate and NCI-H462 tumor xenografts", "conditions": "with docetaxel, carboplatin, and gemcitabine; cited from earlier work"}, "[11]": {"test_system": "patients with advanced solid tumors", "conditions": "cited from earlier work"}, "[12]": {"conditions": "human, plasma, oral, arm 1 carboplatin AUC 6 + paclitaxel 200 mg/m^2, MK-2206 90 mg Q3W, 5 patients"}, "[13]": {"conditions": "human, plasma, oral, arm 1 carboplatin AUC 6 + paclitaxel 200 mg/m^2, MK-2206 200 mg Q3W, 5 patients"}, "[14]": {"conditions": "human, plasma, oral, arm 2 docetaxel 60 mg/m^2, MK-2206 90 mg Q3W, 3 patients"}, "[15]": {"conditions": "human, plasma, oral, arm 2 docetaxel 60 mg/m^2, MK-2206 200 mg Q3W, 4 patients"}, "[16]": {"conditions": "human, plasma, oral, arm 3 erlotinib 100 mg, MK-2206 135 mg QW, 6 patients"}, "[17]": {"conditions": "human, plasma, oral, arm 3 erlotinib 150 mg QD, MK-2206 135 mg QW, 6 patients"}}, "note": "Like-named read-outs stand apart in the source and are kept apart here."}
{"compound": "NC1(c2ccc(-c3nc4ccn5c(=O)[nH]nc5c4cc3-c3ccccc3)cc2)CCC1", "note": "[MK-2206]", "values": [{"measurement": "IC50", "setting": "[1]", "value": "[…]"}, {"measurement": "IC50", "setting": "[2]", "value": "> 35000", "unit": "nM"}, {"measurement": "IC50", "setting": "[3]", "value": "> 35000", "unit": "nM"}, {"measurement": "IC50", "setting": "[4]", "value": 12, "unit": "nM"}, {"measurement": "tumor growth suppression in combination with erlotinib", "setting": "[5]", "value": "significantly greater in vivo tumor growth suppression and tumor regressions over each single agent"}, {"measurement": "metabolism to oxidative metabolites", "setting": "[6]", "value": "mediated primarily by CYP3A"}, {"measurement": "mean Ctrough", "setting": "[7]; 45-mg dose level in all schedules", "value": "> 56.8", "unit": "nM"}, {"measurement": "mean 48-hr plasma concentration", "setting": "[7]; 60-mg QOD (arm 1), last PK sampling time", "value": "above 56.8 nM"}, {"measurement": "AUC, Cmax and Tmax following the first MK-2206 dose", "setting": "[7]; all treatment arms, compared with single-agent phase 1 study (ref 18)", "value": "within ranges observed at the corresponding dose levels in the single-agent phase 1 study"}, {"measurement": "apparent t1/2 in combination with carboplatin and erlotinib", "setting": "[7]; compared with monotherapy", "value": "consistent with that observed with monotherapy"}, {"measurement": "Tmax", "setting": "[7]; human, plasma, oral, arm 1 carboplatin AUC 6 + paclitaxel 200 mg/m^2, MK-2206 45 mg QOD, 6 patients", "value": 4, "unit": "h"}, {"measurement": "Tmax", "setting": "[7]; human, plasma, oral, arm 1 carboplatin AUC 6 + paclitaxel 200 mg/m^2, MK-2206 60 mg QOD, 8 patients", "value": 8, "unit": "h"}, {"measurement": "Tmax", "setting": "[7]; [12]", "value": 6, "unit": "h"}, {"measurement": "half-life", "setting": "[7]; [12]", "value": "79.5 ± 17.3", "unit": "h"}, {"measurement": "half-life", "setting": "[7]; human, plasma, oral, arm 1 carboplatin AUC 6 + paclitaxel 200 mg/m^2, MK-2206 135 mg Q3W, 6 patients", "value": "73 ± 20", "unit": "h"}, {"measurement": "Tmax", "setting": "[7]; [13]", "value": 4, "unit": "h"}, {"measurement": "half-life", "setting": "[7]; [13]", "value": "74.7 ± 13.4", "unit": "h"}, {"measurement": "Tmax", "setting": "[7]; [14]", "value": 4, "unit": "h"}, {"measurement": "half-life", "setting": "[7]; [14]", "value": "105 ± 15", "unit": "h"}, {"measurement": "half-life", "setting": "[7]; human, plasma, oral, arm 2 docetaxel 60 mg/m^2, MK-2206 135 mg Q3W, 3 patients", "value": "106 ± 32.7", "unit": "h"}, {"measurement": "Tmax", "setting": "[7]; [15]", "value": 6, "unit": "h"}, {"measurement": "half-life", "setting": "[7]; [15]", "value": "86.9 ± 11.5", "unit": "h"}, {"measurement": "Tmax", "setting": "[7]; human, plasma, oral, arm 2 docetaxel 75 mg/m^2, MK-2206 45 mg QOD, 5 patients", "value": 6, "unit": "h"}, {"measurement": "Tmax", "setting": "[7]; human, plasma, oral, arm 3 erlotinib 100 mg, MK-2206 45 mg QOD, 9 patients", "value": 6, "unit": "h"}, {"measurement": "Tmax", "setting": "[7]; [16]", "value": 6, "unit": "h"}, {"measurement": "half-life", "setting": "[7]; [16]", "value": "60.6 ± 6.6", "unit": "h"}, {"measurement": "Tmax", "setting": "[7]; human, plasma, oral, arm 3 erlotinib 150 mg QD, MK-2206 45 mg QOD, 4 patients", "value": 7, "unit": "h"}, {"measurement": "Tmax", "setting": "[7]; [17]", "value": 4, "unit": "h"}, {"measurement": "half-life", "setting": "[7]; [17]", "value": "50.2 ± 10.3", "unit": "h"}, {"measurement": "concentration at 48 h", "setting": "[7]; human, plasma, oral, 45-mg QOD (arm 3), last PK sampling time", "value": "> 56.8", "unit": "nM"}, {"measurement": "inhibition of proliferation and induction of apoptosis in combination", "setting": "[8]", "value": "[…]"}, {"measurement": "duration of SD", "setting": "[9]; 1 metastatic breast cancer patient harboring a PIK3CA mutation (exon 20)", "value": "[…]"}, {"measurement": "duration of PR, range", "setting": "[9]; arm 1", "value": "[…]"}, {"measurement": "median duration of PR", "setting": "[9]; arm 1", "value": "[…]"}, {"measurement": "confirmed partial responses, patients", "setting": "[9]; arm 1, QOD and Q3W schedules, melanoma, neuroendocrine prostate, endometrial, cervical", "value": 4}, {"measurement": "duration of unconfirmed PR", "setting": "[9]; arm 1, SCC of the head and neck (n = 1)", "value": "[…]"}, {"measurement": "unconfirmed PRs, patients", "setting": "[9]; arm 1, SCC of the head and neck, and gastric", "value": 2, "unit": "patients"}, {"measurement": "duration of confirmed PR", "setting": "[9]; arm 1, cervical (n = 1)", "value": "[…]"}, {"measurement": "duration of confirmed PR", "setting": "[9]; arm 1, endometrial (n = 1)", "value": "[…]"}, {"measurement": "duration of unconfirmed PR", "setting": "[9]; arm 1, gastric (n = 1)", "value": "[…]"}, {"measurement": "duration of confirmed PR", "setting": "[9]; arm 1, melanoma (n = 1)", "value": "[…]"}, {"measurement": "duration of confirmed PR", "setting": "[9]; arm 1, neuroendocrine prostate (n = 1)", "value": "[…]"}, {"measurement": "complete response, patients", "setting": "[9]; arm 1 carboplatin and paclitaxel, squamous cell carcinoma (SCC) of the orbit, 24 evaluable", "value": 1, "unit": "patient"}, {"measurement": "duration of PR", "setting": "[9]; arm 2, MK-2206 200 mg with docetaxel, NSCLC patient", "value": "[…]"}, {"measurement": "confirmed PR, patients", "setting": "[9]; arm 2, Q3W MK-2206 and docetaxel, NSCLC", "value": "One"}, {"measurement": "objective responses", "setting": "[9]; arm 3 erlotinib", "value": "No objective responses"}, {"measurement": "best response SD, duration", "setting": "[9]; arm 3 erlotinib, QW schedule, patient with NSCLC", "value": "[…]"}, {"measurement": "best response SD, duration", "setting": "[9]; arm 3 erlotinib, patient with cervical cancer", "value": "[…]"}, {"measurement": "duration of SD, range", "setting": "[9]; in vivo", "value": "[…]"}, {"measurement": "median duration of SD", "setting": "[9]; in vivo", "value": "[…]"}, {"measurement": "patients with SD lasting at least 6 months", "setting": "[9]; in vivo", "value": "Six"}, {"measurement": "duration of SD", "setting": "[9]; patients harboring PIK3CA mutations", "value": "[…]"}, {"measurement": "duration of SD", "setting": "[9]; patients with KRAS mutations", "value": "[…]"}, {"measurement": "inhibition of xenograft growth in combination", "setting": "[10]", "value": "synergised"}, {"measurement": "MTD of single-agent MK-2206", "setting": "[11]; QOD", "value": 60, "unit": "mg"}, {"measurement": "MTD of MK-2206 monotherapy", "setting": "[11]; QW, monotherapy phase 1 study", "value": 200, "unit": "mg"}, {"measurement": "half-life (t1/2)", "setting": "[11]; single agent, QOD schedule", "value": "60 to 80", "unit": "h"}, {"measurement": "dose-limiting toxicities (DLT)", "setting": "[11]; single agent", "value": "rash and stomatitis"}, {"measurement": "plasma concentration corresponding to 70% AKT inhibition", "setting": "[11]; single-agent phase 1 study", "value": "[…]"}]}
